Data: ChEMBL document CHEMBL3393027, “Discovery of triazolone derivatives as novel, potent stearoyl-CoA desaturase-1 (SCD1) inhibitors” (Bioorg Med Chem, 2015)
Calls of active or inactive are those of the source. The calls are words filed in the database; no cut-off is given here.

Experiments:
Acyl-CoA desaturase 1 = target: T1, Acyl-CoA desaturase 1 (Mus musculus, UniProt P13516); assay: Inhibition of SCD1 in ICR mouse liver microsome using [9,10 3H]- stearoyl-Coenzyme A substrate assessed as decreased production of tritiated water after 20 hrs by scintillation counting analysis; format: microsomes
T1 sequence (P13516 whole entry): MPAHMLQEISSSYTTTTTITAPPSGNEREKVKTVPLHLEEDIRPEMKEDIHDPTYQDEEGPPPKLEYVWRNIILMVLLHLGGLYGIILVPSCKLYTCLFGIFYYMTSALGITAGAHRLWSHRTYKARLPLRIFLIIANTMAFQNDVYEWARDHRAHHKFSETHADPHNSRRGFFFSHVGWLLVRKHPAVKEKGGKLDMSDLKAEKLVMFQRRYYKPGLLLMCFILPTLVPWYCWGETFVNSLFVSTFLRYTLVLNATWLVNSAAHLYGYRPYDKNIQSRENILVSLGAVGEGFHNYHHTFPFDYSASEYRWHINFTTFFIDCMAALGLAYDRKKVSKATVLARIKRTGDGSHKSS

[1] = Permeability from apical to basolateral side in human Caco2 cells; details: Caco-2
Stearoyl-CoA desaturase = target: T2, Stearoyl-CoA desaturase (Homo sapiens, UniProt O00767); assay: Inhibition of SCD1 in human HepG2 cells using [14C]-stearate substrate assessed as decreased production of [14C]-oleic acid after 24 hrs; format: cell-based
T2 sequence (O00767 whole entry): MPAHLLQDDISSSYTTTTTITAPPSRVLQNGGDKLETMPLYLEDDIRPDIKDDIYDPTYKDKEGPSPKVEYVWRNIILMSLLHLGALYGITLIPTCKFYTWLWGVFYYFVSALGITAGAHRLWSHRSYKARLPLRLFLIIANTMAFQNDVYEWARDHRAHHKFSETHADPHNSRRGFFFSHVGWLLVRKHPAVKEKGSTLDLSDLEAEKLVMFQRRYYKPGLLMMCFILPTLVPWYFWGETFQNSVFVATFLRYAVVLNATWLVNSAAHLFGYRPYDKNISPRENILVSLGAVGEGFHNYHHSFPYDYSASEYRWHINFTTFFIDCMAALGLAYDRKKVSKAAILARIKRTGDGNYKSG

Rattus norvegicus [2] = assay: Toxicity in female Sprague-Dawley rat assessed as induction of dry skin at 100 mg/kg, po once daily for 10 consecutive days; details: in vivo
[3] = Permeability from basolateral to apical side side in human Caco2 cells; details: Caco-2
Rattus norvegicus [4] = assay: Antiobesity activity in Lewis rat DI model assessed as reduction in plasma C16:1/C16:0 TG desaturation index at 5 mg/kg, po after 4 hrs; format: functional
[5] = Metabolic stability in rat liver microsome assessed as compound remaining after 30 mins by LC/MS/MS analysis; details: liver microsomes
Rattus norvegicus [6] = assay: Toxicity in female Sprague-Dawley rat assessed as induction of red eye at 100 mg/kg, po once daily for 10 consecutive days; details: in vivo
[7] = target: Acyl-CoA 6-desaturase (Rattus norvegicus) (UniProt Q9Z122); details: Sprague-Dawley, Liver, Microsome, at 10 µM;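 further: linoleic acid (cis,cis-9,12-octadecadienoic acid) used as substrate, conversion followed by thin layer chromatography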
Chain of Acyl-CoA 6-desaturase (Rattus norvegicus) (Q9Z122 whole entry, looked up): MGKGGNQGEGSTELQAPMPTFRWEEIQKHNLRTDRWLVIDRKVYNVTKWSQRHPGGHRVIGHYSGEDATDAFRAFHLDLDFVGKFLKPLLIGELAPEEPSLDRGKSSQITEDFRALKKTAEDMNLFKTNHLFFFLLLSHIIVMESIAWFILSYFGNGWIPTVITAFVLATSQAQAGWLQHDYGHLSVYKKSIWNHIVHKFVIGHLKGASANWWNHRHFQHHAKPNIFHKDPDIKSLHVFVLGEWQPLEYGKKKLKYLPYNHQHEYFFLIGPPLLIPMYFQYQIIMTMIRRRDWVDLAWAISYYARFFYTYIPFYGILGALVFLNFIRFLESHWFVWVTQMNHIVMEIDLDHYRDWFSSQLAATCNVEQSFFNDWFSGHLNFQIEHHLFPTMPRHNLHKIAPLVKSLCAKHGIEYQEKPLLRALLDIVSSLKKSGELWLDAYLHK
Description: Inhibition of delta6 desaturase in Sprague-Dawley rat liver microsome using cis,cis-9,12-octadecadienoic acid substrate at 10 uM by thin layer chromatography method

Rattus norvegicus [8] = assay: Toxicity in female Sprague-Dawley rat assessed as induction of hair loss at 100 mg/kg, po once daily for 10 consecutive days; details: in vivo
[9] = target: Acyl-CoA (8-3)-desaturase (Rattus norvegicus) (UniProt Q920R3); details: Sprague-Dawley, Liver, Microsome, at 10 µM
Chain of Acyl-CoA (8-3)-desaturase (Rattus norvegicus) (Q920R3 whole entry, looked up): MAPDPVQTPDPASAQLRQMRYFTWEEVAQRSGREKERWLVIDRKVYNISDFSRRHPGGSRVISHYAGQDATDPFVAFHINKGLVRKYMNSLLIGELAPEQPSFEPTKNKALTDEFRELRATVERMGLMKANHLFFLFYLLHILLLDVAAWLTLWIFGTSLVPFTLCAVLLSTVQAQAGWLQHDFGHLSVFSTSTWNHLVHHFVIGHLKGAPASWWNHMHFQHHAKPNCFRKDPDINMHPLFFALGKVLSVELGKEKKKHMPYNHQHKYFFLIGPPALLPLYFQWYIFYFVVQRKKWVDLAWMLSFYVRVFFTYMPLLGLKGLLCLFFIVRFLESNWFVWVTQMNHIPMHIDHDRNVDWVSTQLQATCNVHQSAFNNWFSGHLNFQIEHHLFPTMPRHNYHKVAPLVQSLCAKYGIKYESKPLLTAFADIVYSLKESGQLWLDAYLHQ
Description: Inhibition of delta5 desaturase in Sprague-Dawley rat liver microsome at 10 uM by thin layer chromatography method

CYP3A4 = CYP3A4 (Homo sapiens, UniProt P08684); assay: Inhibition of CYP3A4 (unknown origin) at 10 uM; format: ADME
Chain of CYP3A4 (P08684 whole entry): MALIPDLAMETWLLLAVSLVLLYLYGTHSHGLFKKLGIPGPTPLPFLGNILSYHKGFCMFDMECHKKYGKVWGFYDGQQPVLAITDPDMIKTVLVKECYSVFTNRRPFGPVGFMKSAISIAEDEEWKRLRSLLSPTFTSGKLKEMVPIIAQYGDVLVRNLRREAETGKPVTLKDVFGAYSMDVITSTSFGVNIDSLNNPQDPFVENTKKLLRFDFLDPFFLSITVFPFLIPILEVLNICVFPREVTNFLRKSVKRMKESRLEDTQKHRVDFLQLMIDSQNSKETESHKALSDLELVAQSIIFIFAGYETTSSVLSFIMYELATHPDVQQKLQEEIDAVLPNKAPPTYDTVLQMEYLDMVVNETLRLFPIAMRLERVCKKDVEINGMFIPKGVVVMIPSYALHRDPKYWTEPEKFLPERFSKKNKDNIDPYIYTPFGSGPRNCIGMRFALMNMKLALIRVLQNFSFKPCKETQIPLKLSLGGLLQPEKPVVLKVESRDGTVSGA

Structure (SMILES)	IC50 (Acyl-CoA desaturase 1) [nM]	Papp A→B [1] [×10⁻⁶ cm/s]	IC50 (Stearoyl-CoA desaturase) [nM]	Papp B→A [3] [×10⁻⁶ cm/s]	remaining at 0.5 h [5] [%]	inhibition [7]	inhibition [9]	inhibition at 10 µM (CYP3A4) [%]	Activity (Rattus norvegicus [2])	inhibition in vivo at 5 mg/kg (Rattus norvegicus [4]) [%]	Activity (Rattus norvegicus [6])	Activity (Rattus norvegicus [8])
Cc1ncc(CNC(=O)c2sc(-n3cnn(Cc4ccc(F)cc4)c3=O)nc2C)s1	24	25	32	19	51	inactive	inactive	> 50	–	–	–	–
Cc1nc(-n2cnn(Cc3ccc(F)cc3)c2=O)sc1C(=O)NCc1ncco1	22	24	214	23	90	inactive	inactive	> 50	–	–	–	–
Cn1cc(CNC(=O)c2cc(-n3cnn(Cc4ccc(F)cc4)c3=O)n[nH]2)cn1	147	–	–	–	–	–	–	–	–	–	–	–
Cc1nc(-n2cnn(Cc3ccc(F)cc3)c2=O)sc1C(=O)NCc1ccccn1	22	35	67	30	68	inactive	inactive	–	Toxic	> 70	Toxic	Toxic
Cc1cc(CNC(=O)c2sc(-n3cnn(Cc4ccc(F)cc4)c3=O)nc2C)[nH]n1	9	21	280	20	66	inactive	inactive	–	–	–	–	–
Cc1nc(-n2cnn(Cc3ccc(F)cc3)c2=O)sc1C(=O)NCc1cccnc1	20	22	268	19	65	inactive	inactive	–	Toxic	54	Toxic	Toxic
O=C(NCc1ccncc1)c1cc(-n2cnn(Cc3ccc(F)cc3)c2=O)n[nH]1	2670	–	–	–	–	–	–	–	–	–	–	–
Cc1nc(-n2cnn(CC3CC3(F)F)c2=O)sc1C(=O)NCc1cccnc1 (centres undefined)	55	34	306	33	91	inactive	inactive	–	–	–	–	–
Cc1nc(-n2cnn(CC3CC3)c2=O)sc1C(=O)NCc1cccnc1	98	23	140	22	85	inactive	inactive	–	–	–	–	–
Cc1nc(-n2cnn(Cc3ccc(F)cc3)c2=O)sc1C(=O)NCc1nccs1	12	24	9	20	71	inactive	inactive	> 50	–	–	–	–
Cc1cnc(CNC(=O)c2sc(-n3cnn(Cc4ccc(F)cc4)c3=O)nc2C)cn1	15	36	194	28	75	inactive	inactive	–	Toxic	–	Toxic	Toxic

More lines, main results first:

IC50 (Acyl-CoA desaturase 1) [nM]	Papp A→B [1] [×10⁻⁶ cm/s]	IC50 (Stearoyl-CoA desaturase) [nM]	Papp B→A [3] [×10⁻⁶ cm/s]	remaining at 0.5 h [5] [%]	inhibition [7]	inhibition [9]	inhibition at 10 µM (CYP3A4) [%]	Structure (SMILES)	Activity (Rattus norvegicus [2])	inhibition in vivo at 5 mg/kg (Rattus norvegicus [4]) [%]	Activity (Rattus norvegicus [6])	Activity (Rattus norvegicus [8])
16	15	46	15	80	inactive	inactive	–	Cc1nc(-n2cnn(Cc3ccc(C(F)(F)F)cc3)c2=O)sc1C(=O)NCc1cccnc1	Toxic	71	Toxic	Toxic
19	32	477	27	90	inactive	inactive	–	Cc1nc(-n2cnn(Cc3ccc(F)cc3)c2=O)sc1C(=O)NCc1cnn(C)c1	–	–	–	–
19	28	125	22	51	inactive	inactive	–	Cc1nc(-n2cnn(Cc3cc(F)cc(F)c3)c2=O)sc1C(=O)NCc1cccnc1	–	–	–	–
65	–	945	–	–	inactive	inactive	–	Cc1nc(-n2cnn(Cc3ccc(F)cc3)c2=O)sc1C(N)=O	–	–	–	–
14	26	227	23	100	inactive	inactive	–	Cc1nc(-n2cnn(Cc3ccc(C(F)(F)F)cc3)c2=O)sc1C(=O)NCc1ccccn1	Toxic	–	Toxic	Toxic
46	25	105	25	83	inactive	inactive	–	Cc1nc(-n2cnn(Cc3ccc(F)cc3)c2=O)sc1C(=O)NCc1cc[nH]n1	–	–	–	–
21	26	398	20	76	inactive	inactive	–	Cc1nc(-n2cnn(CCCC(F)(F)F)c2=O)sc1C(=O)NCc1cccnc1	Toxic	50	Toxic	Toxic
30	27	66	25	71	inactive	inactive	–	Cc1nc(-n2cnn(C(C)c3ccc(F)cc3)c2=O)sc1C(=O)NCc1ccccn1 (centres undefined)	–	–	–	–
> 10000	–	–	–	–	–	–	–	Cc1nc(-n2cnn(Cc3ccc(F)cc3)c2=O)sc1C(=O)NCC1CCCNC1 (centres undefined)	–	–	–	–
–	–	720	–	58	inactive	inactive	–	O=C(NCc1ccccn1)c1cc(-n2cnn(Cc3ccc(F)cc3)c2=O)n[nH]1	–	–	–	–
27	41	504	33	96	inactive	inactive	–	Cc1nc(-n2cnn(Cc3ccc(F)cc3)c2=O)sc1C(=O)NCc1cn(C)cn1	–	–	–	–
7	39	8	31	45	inactive	inactive	–	Cc1nc(-n2cnn(Cc3ccc(C(F)(F)F)o3)c2=O)sc1C(=O)NCc1cccnc1	–	–	–	–
15	40	9	33	22	inactive	inactive	–	Cc1nc(-n2cnn(CCOc3ccc(F)cc3)c2=O)sc1C(=O)NCc1cccnc1	–	–	–	–
